Test results: paper PMC6412374, “Engineering of Antimicrobial Surfaces by Using Temporin Analogs to Tune the Biocidal/antiadhesive Effect” (Molecules, 2019)
In brackets after ≈: the same amount, converted by molar mass. Square brackets hold non-standard residues; d marks the D form. Ends that are not written are not given here. Peptide text beside a SMILES is read from it.

Columns and labels:
[1] = test system: Listeria ivanovii (Li4pVS2); test: MBC, plating of MIC wells on agar; assay type: cell-based; details: free peptide in solution; MIC well and 4 wells above plated on agar, overnight; lowest concentration with at least 99.99% decrease; triplicate
Description: (§1) Non-pathogenic bacteria Listeria ivanovii Li4pVS2 (Courtesy of Prof. J.-M. Berjeaud, Poitiers University, Poitiers, France) were used to investigate the antibacterial activity of the modified surfaces. Bacterial suspensions were prepared from frozen cultures incubated overnight (37 °C under agitation at 250 rpm) in brain heart infusion (BHI) broth (BD Difco, Franklin Lakes, NJ, USA). After centrifugation at 10,000× g for 5 min and elimination of the liquid phase (supernatant) the bacteria were redisposed in NaCl 0.9% solution up to a concentration of to 2 × 10^6 colony forming unity (CFU) per mL, verified by measuring the OD620nm = 0.02.
(§2) MIC values of temporin analogs were determined using a liquid growth inhibition assay. An exponential-phase bacterial culture of Listeria ivanovii was diluted in BHI broth to an OD of 0.02 (2 × 10^6 CFU/mL). A volume of 100 μL of this bacterial suspension was mixed with 100 μL of 2-fold serial aqueous dilutions of each temporin (final concentrations from 0.78 to 100 µM). The bacterial growth was monitored by measuring the OD change during overnight incubation. MIC and MBC tests were carried out in triplicate with positive (0.7% formaldehyde) and negative (saline NaCl 0.9% solution) controls. […] The bacterial suspension corresponding to the MIC well and 4 wells above MIC were collected and deposited on agar plate in order to determine the minimal bactericidal concentration (MBC). The MBC is expressed as the lowest concentration for which a decrease of at least 99.99% is observed on agar plates after overnight incubation.

[2] = test system: Listeria ivanovii (Li4pVS2); test: MIC, liquid growth inhibition assay of free temporins in solution; assay type: cell-based; details: free peptide in solution; BHI broth, 2 × 10^6 CFU/mL, 2-fold serial dilutions, overnight incubation, OD read-out; lowest concentration that completely inhibits growth; triplicate
Description: as §1, §2

Compound | MBC [1] [µM] | MIC [2] [µM]
FAKGIAGMAGKLF [[A^2,6,9, K^3]SHa-COOH, [A^2,6,9, K^3]temporin-SHa-COOH] | 256 | –
FLSGIVGMLGKLF-NH2 [SHa, Temporin-SHa, reference compound] | 6 | 6
FASGIAGMAGKLF-NH2 [[A^2,6,9]SHa, [A^2,6,9]temporin-SHa] | >200 | –
CC[C@@H](C)[C@@H](NC(=O)CNC(=O)[C@@H](CCCCN)NC(=O)[C@@H](CC(C)C)NC(=O)[C@H](N)Cc1ccccc1)C(=O)N[C@@H](C(=O)NCC(=O)N[C@H](CCSC)C(=O)N[C@H](CC(C)C)C(=O)NCC(=O)N[C@H](CCCCN)C(=O)N[C@H](CC(C)C)C(=O)N[C@H](Cc1ccccc1)C(N)=O)C(C)C [D-[K^3]SHa, D-[K^3]temporin-SHa] (H-[dF][dL][dK]G[dI][dV]G[dM][dL]G[dK][dL][dF]-NH2; N-terminus assumed) | 3.12 (≈ 4.44 µg/mL) | 1.56 (≈ 2.22 µg/mL)
FLKGIVGMLGKLF-NH2 [[K^3]SHa, [K^3]temporin-SHa] | 3.12 | 1.56
FLKGIVGMLGKLF [[K^3]SHa-COOH, [K^3]temporin-SHa-COOH] | 128 | 64
FAKGIAGMAGKLF-NH2 [[A^2,6,9, K^3]SHa, [A^2,6,9, K^3]temporin-SHa] | >200 | –
